According to patent US20230159527A1, “COMPOUNDS AS BCL-2 INHIBITORS” (Fochon Pharmaceuticals, Ltd., priority 2020, published 2023):
Where two headings read alike, the source gives them in different places.

Key:
Format in all cases: cell-based
[1] = system: RS4;11-BCL-2 F104L cells; test: Cell proliferation assay, engineered RS4;11 cells stably overexpressing BCL-2 F104L (MTS, 168 h); details: Homo sapiens, read-out: RS4, 11 BCL2-F104L
Experimental: MTS testing kit was purchased from Promega (Madison, Wis., USA). The RPMI-1640, Fetal bovine serum and Penicillin-Streptomycin were purchased from BI (Biological Industries, Beit Haemek, Israel). Puromycin was purchased from Beyotime (shanghai, China). Dimethyl sulfoxide (DMSO) was purchased from Sigma (St. Louis, Mo., USA). RS4;1l-BCL-2 G101V and RS4;11-BCL-2 F104L cells were cultured in RPM11640 supplemented with 1 ug/mL puromycin, 100 U/mL Penicillin-Streptomycin and 10% FBS.
To investigate whether a compound is able to inhibit the activity of BCL-2 mutation in cells, a mechanism-based assay using engineered cell lines stably overexpressing BCL-2 mutation ([…] and […]) was developed. In this assay, the inhibition of BCL-2 mutation was reflected by the inhibition of cell proliferation of RS4;11-BCL-2 G101V and RS4;11-BCL-2 F104L cells. Cells were plated into 96-well plates at optimized cell density (RS4;11-BCL-2 G101V: 5000 cells/well; RS4;11-BCL-2 F104L: 5000 cells/well). Plates were incubated at 37° C., with 5% CO2 for 4 h. Compounds were serially diluted to the final-concentrations of 10000, 3333.3, 1111.1, 370.4, 123.5, 41.2, 13.7, 4.6 and 1.4 nM and added to the plates. Plates were incubated at 37° C., with 5% CO2 for 168 h. 20 μl MTS was added into each well and the plates were incubated at 37° C., with 5% CO2 exactly for 2 h. The absorbance was measured by a microplate reader at 490 nm. IC50 values were calculated using GraphPad Prism 5.0 software.

[2] = system: Toledo cells; test: Cell proliferation assay, Toledo cells (MTS, 72 h); details: Toledo cells, MTS, read-out: Toledo IC50
In short: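 Toledo cells (30000/well, RPMI-1640 with 10% FBS) were preincubated for 4 h. They were then exposed to nine compound concentrations from 10000 to 1.5 nM for 72 h at 37 °C, 5% CO2. MTS was added for 2 h and absorbance read at 490 nm to give IC50.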

[3] = system: DoHH2 cells; test: Cell proliferation assay, DoHH2 cells (MTS, 120 h)
Experimental: MTS testing kit was purchased from Promega (Madison, Wis., USA). The RPMI-1640, Fetal bovine serum and Penicillin-Streptomycin were purchased from BI (Biological Industries, Beit Haemek, Israel). Dimethyl sulfoxide (DMSO) was purchased from Sigma (St. Louis, Mo., USA). DoHH2 (DSMZ catalog #: ACC47) cells were cultured in RPMI-1640 supplemented with Penicillin-Streptomycin and 10% FBS.
To investigate whether a compound is able to inhibit the activity of BCL-2 in cells, a mechanism-based assay using DoHH2 lines was developed. In this assay, the inhibition of BCL-2 was reflected by the inhibition of cell proliferation of DoHH2 cells. Cells were plated into 96-well plates at the optimized cell density of 5000 cells/well. Plates were incubated at 37° C., with 5% CO2 for 4h. Compounds were serially diluted and added to the plates with the final concentrations of 10000, 3333.3, 1111.1, 370.4, 123.5, 41.2, 13.7, 4.6 and 1.5 nM. Plates were incubated at 37° C., with 5% CO2 for 120 h. 20 μl MTS was added into each well and the plates were incubated at 37° C., with 5% CO2 for exactly 2 h. The absorbance was measured by a microplate reader at 490 nm. IC50 was calculated using GraphPad Prism 5.0 software.

| Compound | IC50 ([2]; Homo sapiens) | IC50 ([3]; Homo sapiens, DOHH-2) | also measured |
| --- | --- | --- | --- |
| CO[C@@H](C)COc1nc2[nH]cc(F)c2cc1Oc1cc(N2CCC3(CC2)CN([C@H]2CCC[C@H]2c2ccccc2C(C)C)C3)ccc1C(=O)NS(=O)(=O)c1cnc(NC[C@H]2CC[C@](C)(O)CC2)c([N+](=O)[O-])c1 (single isomer, unassigned) [Example A-155a, 2-((3-fluoro-6-((S)-2-methoxypropoxy)-1H-pyrrolo[2,3-b]pyridin-5-yl)oxy)-N-((6-(((1r,4r)-4-hydroxy-4-methylcyclohexyl)methyl)amino)-5-nitropyridin-3-yl)sulfonyl)-4-(2-((1S,2S or 1R,2R)-2-(2-isopropylphenyl)cyclo-pentyl)-2,7-diazaspiro[3.5]nonan-7-yl) benzamide] | – | – | IC50 [1]: 27 nM |
| CO[C@@H](C)COc1nc2[nH]cc(F)c2cc1Oc1cc(N2CCC3(CC2)CC(N2CCC[C@H]2c2ccccc2C(C)C)C3)ccc1C(=O)NS(=O)(=O)c1cc2c(c([N+](=O)[O-])c1)N[C@@H]([C@H]1CC[C@](C)(O)CC1)CO2 (single isomer, unassigned) [Example D-243a, 2-((3-fluoro-6-((S)-2-methoxypropoxy)-1H-pyrrolo[2,3-b]pyridin-5-yl)oxy)-N-(((S)-3-((1r,4S)-4-hydroxy-4-methylcyclohexyl)-5-nitro-3,4-dihydro-2H-benzo[b][1,4]oxazin-7-yl)sulfonyl)-4-(2-((R or S)-2-(2-isopropylphenyl)pyrrolidin-1-yl)-7-azaspiro[3.5]nonan-7-yl) benzamide] | – | – | IC50 [1]: 13 nM |
| CC(C)c1ccccc1[C@@H]1CCCN1C1CC2(CCN(c3ccc(C(=O)NS(=O)(=O)c4cc5c(c([N+](=O)[O-])c4)O[C@@H](CN4CCOCC4)CO5)c(Oc4cnc5[nH]ccc5c4)c3)CC2)C1 (single isomer, unassigned) [Example E-35, 2-((1H-pyrrolo [2,3-b]pyridin-5-yl)oxy)-4-(2-((R or S)-2-(2-isopropylphenyl)pyrrolidin-1-yl)-7-azaspiro[3.5]nonan-7-yl)-N-(((S)-2-(morpholinomethyl)-8-nitro-2,3-dihydrobenzo [b][1,4]dioxin-6-yl)sulfonyl) benzamide] | 7 nM | ≤ 1 nM | – |
| CC(C)c1ccccc1C1COCCN1C1CC2(CCN(c3ccc(C(=O)NS(=O)(=O)c4cnc(NCC5CCC(N=S(C)(C)=O)CC5)c([N+](=O)[O-])c4)c(Oc4cnc5[nH]ccc5c4)c3)CC2)C1 (single isomer, unassigned) [Example A-57, 2-((1H-pyrrolo[2,3-b]pyridin-5-yl)oxy)-N-((6-((((1r,4r)-4-((dimethyl (oxo)-λ^6-sulfanylidene)amino)cyclohexyl)methyl)amrno)-5-nitro-pyridin-3-yl)sulfonyl)-4-(2-((R or S)-3-(2-isopropylphenyl)morpho-lino)-7-azaspiro[3.5]nonan-7-yl) benzamide] | – | – | IC50 [2]: 2 nM; IC50 [3]: ≤ 1 nM |
| CO[C@H](C)COc1nc2[nH]cc(F)c2cc1Oc1cc(N2CCC3(CC2)CC(N2CCC[C@H]2c2ccccc2C(C)C)C3)ccc1C(=O)NS(=O)(=O)c1cc2c(c([N+](=O)[O-])c1)N[C@@H]([C@H]1CC[C@](C)(O)CC1)CO2 (single isomer, unassigned) [Example D-243b, 2-((3-fluoro-6-((R)-2-methoxypropoxy)-1H-pyrrolo[2,3-b]pyridin-5-yl)oxy)-N-(((S)-3-((1r,4S)-4-hydroxy-4-methylcyclohexyl)-5-nitro-3,4-dihydro-2H-benzo[b][1,4]oxazin-7-yl)sulfonyl)-4-(2-((R or S)-2-(2-isopropylphenyl)pyrrolidin-1-yl)-7-azaspiro[3.5]nonan-7-yl) benzamide] | – | – | IC50 [1]: 20 nM |
| O=C(NS(=O)(=O)c1cc2c(c([N+](=O)[O-])c1)O[C@H](CN1CCOCC1)CO2)c1ccc(N2CCC3(CC2)CC(N2CCOC[C@H]2c2ccccc2C2CC2)C3)cc1Oc1cnc2[nH]ccc2c1 (single isomer, unassigned) [Example E-41, 2-((1H-pyrrolo [2,3-b]pyridin-5-yl)oxy)-4-(2-((R or S)-3-(2-cyclopropylphenyl)morpholino)-7-azaspiro[3.5]nonan-7-yl)-N-(((R)-2-(morpholinomethyl)-8-nitro-2,3-dihydrobenzo [b][1,4]dioxin-6-yl)sulfonyl) benzamide] | 1 nM | ≤ 1 nM | – |
| CC(C)c1ccccc1[C@@H]1COCCN1C1CC2(CCN(c3ccc(C(=O)NS(=O)(=O)c4cnc(NC[C@H]5CC[C@](C)(O)CC5)c([N+](=O)[O-])c4)c(Oc4cnc5[nH]cc(Cl)c5c4)c3)CC2)C1 (single isomer, unassigned) [Example A-129, 2-((3-chloro-1H-pyrrolo[2,3-b]pyridin-5-yl)oxy)-N-((6-((((1r,4r)-4-hydroxy-4-methylcyclohexyl)methyl)amino)-5-nitropyridin-3-yl)sulfonyl)-4-(2-((R or S)-3-(2-isopropylphenyl)morpholino)-7-azaspiro[3.5]nonan-7-yl) benzamide] | 1 nM | ≤ 1 nM | – |
| CC(C)c1ccccc1C1COCCN1C1CC2(CCN(c3ccc(C(=O)NS(=O)(=O)c4cc5c(c([N+](=O)[O-])c4)N[C@@H](CN4CCC(NS(C)(=O)=O)CC4)CO5)c(Oc4cnc5[nH]ccc5c4)c3)CC2)C1 (single isomer, unassigned) [Example D-23, 2-((1H-pyrrolo[2,3-b]pyridin-5-yl)oxy)-4-(2-((R or S)-3-(2-isopropylphenyl)morpholino)-7-azaspiro[3.5]nonan-7-yl)-N-(((S)-3-((4-(methylsulfonamido)piperidin-1-yl)methyl)-5-nitro-3,4-dihydro-2H-benzo[b][1,4]oxazin-7-yl)sulfonyl)benzamide] | – | ≤ 1 nM | – |
| CC(C)c1ccccc1C1CN(C)CCN1C1CC2(CCN(c3ccc(C(=O)NS(=O)(=O)c4cnc(NCC5CCC(C)(O)CC5)c([N+](=O)[O-])c4)c(Oc4cnc5[nH]ccc5c4)c3)CC2)C1 (single isomer, unassigned) [Example A-62, (R or S)-2-((1H-pyrrolo[2,3-b]pyridin-5-yl)oxy)-N-((6-(((4-hydroxy-4-methylcyclohexyl)methyl)amino)-5-nitropyridin-3-yl)sulfonyl)-4-(2-(2-(2-isopropylphenyl)-4-methyl-piperazin-1-yl)-7-azaspiro[3.5]nonan-7-yl)benzamide] | 1 nM | ≤ 1 nM | – |
| CC(C)c1ccccc1[C@@H]1COCCN1C1CC2(CCN(c3ccc(C(=O)NS(=O)(=O)c4cnc(NC[C@H]5CC[C@](C)(O)CC5)c([N+](=O)[O-])c4)c(Oc4cnc5[nH]cc(F)c5c4)c3)CC2)C1 (single isomer, unassigned) [Example A-128, 2-((3-fluoro-1H-pyrrolo[2,3-b]pyridin-5-yl)oxy)-N-((6-((((1r,4r)-4-hydroxy-4-methylcyclohexyl)methyl)amino)-5-nitropyridin-3-yl)sulfonyl)-4-(2-((R or S)-3-(2-isopropylphenyl)morpholino)-7-azaspiro[3.5]nonan-7-yl) benzamide] | 1 nM | ≤ 1 nM | – |
| CC(C)c1ccccc1[C@@H]1CCC[C@@H]1N1CC2(CCN(c3ccc(C(=O)NS(=O)(=O)c4cnc(NC[C@H]5CC[C@](C)(O)CC5)c([N+](=O)[O-])c4)c(Oc4cnc5[nH]ccc5c4)c3)CC2)C1 (single isomer, unassigned) [Example A-136, 2-((1H-pyrrolo[2,3-b]pyridin-5-yl)oxy)-N-((6-((((1r,4r)-4-hydroxy-4-methylcyclohexyl)methyl)amino)-5-nitropyridin-3-yl)sulfonyl)-4-(2-((1R,2R or 1S, 2S)-2-(2-isopropylphenyl)cyclo-pentyl)-2,7-diazaspiro[3.5]nonan-7-yl)benzamide] | 1 nM | ≤ 1 nM | – |
